In patent publication US20230143604A1, “QW DOSING OF GIP RECEPTOR AGONIST PEPTIDE COMPOUNDS AND USES THEREOF” (TAKEDA PHARMACEUTICAL COMPANY LIMITED, priority 2020, published 2023):
Read-outs that look alike come from different tables or passages of the source. Starred links: 1 amine or outer side, 2 acyl side, 3 side chain; linkers in the order of their positions; H or OH if unused. Non-standard residues stand in square brackets, D forms with d. Residues, ends and D or L forms follow the SMILES beside them. Groups on a side chain read outwards from the residue. *: point of attachment. C18 diacid = O=C(O)CCCCCCCCCCCCCCCCC(=O)*; γGlu = O=C(O)[C@H](CCC(=O)[*:2])N[*:1]; NMeY = CN[C@@H](Cc1ccc(O)cc1)C(=O)O; AEEA = NCCOCCOCC(=O)O; Aib = CC(C)(N)C(=O)O

What was measured:
[1] = Pharmacokinetics in dog after IV and SC dosing; details: in vivo
Description: Pharmacokinetic (PK) were conducted in dog in order to determine the half-life after IV and SC dosing. The peptide was dissolved in 10% DMSO/0.09% Polysorbate/PBS pH 7.4 to a concentration of 3 nmol/mL and the animal were dose with a volume of 1 mL/kg SC or IV. Blood sample were collected at 0, 0.033, 0.083, 0.25, 0.5, 1, 2, 4, 6, 8, 12, 24, 48, 72, 96, 120, 168, 336 hours for IV dosing and 0.25, 0.5, 1, 2, 4, 6, 8, 12, 24, 48, 72, 96, 120, 168, 336 for SC dosing, EDTA-K2 was used as anticoagulant. The plasma concentration of the peptide was measured using LCMS. Allometric scaling of lipidated peptide pharmacokinetics including T1/2 and MRT is known in the art for rodent to dog and mini pig and to humans. […] See for example, Discovery and Development of Liraglutide and Semaglutide. Knudsen, L. B.; Lau, J. Frontiers in Endocrinology, 2019, vol 10, Article 155.

[2] = Dog plasma protein binding (PPB); type: in vitro ADME; details: for fraction unbound: read-out: Dog PPB (FUplasma)
Source text: Dog PPB values presented below are obtained essentially as described for Human PPB samples, with the difference being that dog serum is used instead of human serum. Table 10 is provided with the values of (Fu,plasma) as fraction unbound expressed as a percentage compared to the percent bound. i.e. if the value is 0.0123, then the fraction unbound is […], which is 1.23% of the peptide is unbound and 98.77% is bound in plasma. Methods and analysis for performing the dog PPB protocol and results are the same as noted herein as for the Human PPB protocol and analysis.

[3] = Human plasma protein binding (PPB); type: in vitro ADME
Description: Stock solutions: (1000 μM) of the peptides are prepared in DMSO.
Human plasma (mixed gender; containing K2-EDTA as anti-coagulant; pre-adjusted to pH 7.4—NB alternative species may be used) is spiked individually with each test peptide (1000 nmol/L), sampled for analysis and then incubated (n=4) at 37° C. in a water bath for 30 minutes. Following the incubation period, the plasma is sampled for analysis, then transferred to ultracentrifugation tubes and centrifuged (n=3) at […] and 4° C. for 3 hours, after which the supernatant is sampled for analysis. An additional aliquot of the supernatant is taken at the end of the centrifugation period to determine the total protein concentration. An aliquot of the incubated plasma will be stored at 4° C. for 3 hours and then sampled for analysis. At the point of sampling, all samples are matrix-matched, treated with ice-cold acetonitrile/methanol (4:1 (vfv)) containing internal standard, centrifuged al 2000 g and 4° C. for 10 minutes and stored prior to LC-MS/MS analysis. An appropriate positive control compound control will be incubated and centrifuged in parallel; control plasma is also centrifuged to generate samples for matrix-matching. Fraction unbound in plasma (Fuplasma) values is determined by comparison of the analyte response in plasma to the analyte response in the supernatant, determined via peak area response ratios.
The samples are analyzed by LC-MS/MS using a 6500 (or equivalent) triple quadrupole mass spectrometer (AB Sciex) coupled to an appropriate Liquid Chromatography (LC) system. Protein binding and stability values are determined via peak area ratios using multiple reaction monitoring (MRM) parameters following compound optimisation. Multiple reaction monitoring (MRM) is a highly sensitive method of targeted mass spectrometry (MS) that can be used to selectively detect and quantify peptides based on the screening of specified precursor peptide-to-fragment ion transitions.

physchem = experiment: physchem
Outline: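 Solubility at pH 7.4 determined by stepwise addition of 200 mM phosphate buffer in 100 μL increments to 3 mg peptide, mixing briefly each time, until no insoluble material remained, then measured by liquid chromatography.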

human GLP-1R = target: T1, human GLP-1R (Homo sapiens, UniProt P43220); experiment: Human GLP1R agonist activity, intracellular cAMP accumulation; type: cell-based; details: HEK-293T cells overexpressing human GLP-1R, 1 hr, read-out: Human GLP1R cAMP EC50, HEK293T
T1 construct: HEK-293T cells overexpressing full-length human GLP-1R; FLAG (N); host or cells: HEK-293T
T1 sequence (P43220 24-463): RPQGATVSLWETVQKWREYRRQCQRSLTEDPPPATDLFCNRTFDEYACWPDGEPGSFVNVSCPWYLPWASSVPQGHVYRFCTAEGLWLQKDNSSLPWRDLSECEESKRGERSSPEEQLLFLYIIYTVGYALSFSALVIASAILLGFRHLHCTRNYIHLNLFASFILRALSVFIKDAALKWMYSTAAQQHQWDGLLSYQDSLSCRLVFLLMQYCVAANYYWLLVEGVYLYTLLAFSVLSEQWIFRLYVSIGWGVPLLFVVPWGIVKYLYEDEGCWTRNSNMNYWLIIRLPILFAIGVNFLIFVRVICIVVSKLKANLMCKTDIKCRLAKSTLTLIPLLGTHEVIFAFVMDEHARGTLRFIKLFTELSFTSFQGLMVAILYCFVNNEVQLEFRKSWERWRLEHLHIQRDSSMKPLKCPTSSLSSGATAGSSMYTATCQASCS
Outline: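 cAMP accumulation is measured by HTRF after a 1 hr, room-temperature, dark exposure of thawed cells (4×10^5 cells/mL in Krebs Ringer buffer) to compound. Activity is scaled between DMSO alone as 0% and 1 nm GLP-1 as 100%.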

[4] = judged for once per week (QW) dosing
[5] = IV 3 nmol/kg, read-out: IV T½ (converted)
[6] = SC 3 nmol/kg, read-out: SC MRT 0-last
[7] = pH 7.4, fraction unbound, dog serum

With `CC[C@H](C)[C@H](NC(=O)[C@H](Cc1ccccc1)NC(=O)[C@@H](NC(=O)CNC(=O)[C@H](CCC(=O)O)NC(=O)C(C)(C)NC(=O)[C@H](Cc1ccc(O)cc1)NC)[C@@H](C)O)C(=O)N[C@@H](CO)C(=O)N[C@@H](CC(=O)O)C(=O)N[C@@H](Cc1ccc(O)cc1)C(=O)N[C@@H](CO)C(=O)N[C@H](C(=O)NC(C)(C)C(=O)N[C@@H](CC(C)C)C(=O)N[C@@H](CC(=O)O)C(=O)N[C@@H](CCCNC(=N)N)C(=O)NC(C)(C)C(=O)N[C@@H](C)C(=O)N[C@@H](CCC(N)=O)C(=O)NC(C)(C)C(=O)N[C@@H](CC(N)=O)C(=O)N[C@@H](Cc1ccccc1)C(=O)N[C@H](C(=O)N[C@@H](CC(N)=O)C(=O)N[C@@H](Cc1c[nH]c2ccccc12)C(=O)N[C@@H](CC(C)C)C(=O)N[C@@H](CC(C)C)C(=O)N[C@@H](C)C(=O)N[C@@H](CCC(N)=O)C(=O)N[C@@H](CCCCNC(=O)COCCOCCNC(=O)COCCOCCNC(=O)CC[C@H](NC(=O)CC[C@H](NC(=O)CCCCCCCCCCCCCCCCC(=O)O)C(=O)O)C(=O)O)C(=O)N1CCC[C@H]1C(=O)N[C@@H](CO)C(=O)N[C@@H](CO)C(=O)NCC(=O)N[C@@H](C)C(=O)N1CCC[C@H]1C(=O)N1CCC[C@H]1C(=O)N1CCC[C@H]1C(=O)N[C@@H](CO)C(N)=O)C(C)C)[C@@H](C)CC` [Compound 27, Me-Y-Aib-E-G-T-F-I-S-D-Y-S-I-Aib-L-D-R-Aib-A-Q-Aib-N-F-V-N-W-L-L-A-Q-Km-P-S-S-G-A-P-P-P-S-NH2] (H-[NMeY][Aib]EGTFISDYSI[Aib]LDR[Aib]AQ[Aib]NFVNWLLAQK([AEEA-AEEA-γGlu-γGlu-C18 diacid])PSSGAPPPS-NH2) the half-life ([1]; iv, 3 nmol/kg) was 77 h, the MRT last ([1]; sc, 3 nmol/kg) was 109 h and the “Dog PPB (FUplasma)” value ([2]; fraction unbound, dog serum) was less than 0.002. For the same compound, the fraction unbound at 30 min, 1000 nmol/L ([3]; both sexes, plasma (K2-EDTA), pH 7.4, fraction unbound, human plasma, 1000 nmol/L peptide, ultracentrifugation, read-out: Human PPB (FUplasma)) was 0.0013, the “free unbound peptide in human plasma (in words)” value (shortened to “free unbound peptide”) [3, 4] was “optimum free unbound peptide” and the solubility (physchem; pH 7.4) was no less than 15 mg/mL. It also gave a solubility (physchem; pH 7.4, aqueous buffer) of no less than 30 mg/mL.

In the case of `CC[C@H](C)[C@H](NC(=O)[C@H](CO)NC(=O)[C@H](Cc1ccc(O)cc1)NC(=O)[C@H](CC(=O)O)NC(=O)[C@H](CO)NC(=O)[C@@H](NC(=O)[C@H](Cc1ccccc1)NC(=O)[C@@H](NC(=O)CNC(=O)[C@H](CCC(=O)O)NC(=O)C(C)(C)NC(=O)[C@H](Cc1ccc(O)cc1)NC)[C@@H](C)O)[C@@H](C)CC)C(=O)N[C@@H](C)C(=O)N[C@@H](CC(C)C)C(=O)N[C@@H](CC(=O)O)C(=O)N[C@@H](CCCNC(=N)N)C(=O)NC(C)(C)C(=O)N[C@@H](C)C(=O)N[C@@H](CCC(N)=O)C(=O)NC(C)(C)C(=O)N[C@@H](CCCCNC(=O)COCCOCCNC(=O)COCCOCCNC(=O)CC[C@H](NC(=O)CC[C@H](NC(=O)CCCCCCCCCCCCCCCCC(=O)O)C(=O)O)C(=O)O)C(=O)N[C@@H](Cc1ccccc1)C(=O)N[C@H](C(=O)N[C@@H](CC(N)=O)C(=O)N[C@@H](Cc1c[nH]c2ccccc12)C(=O)N[C@@H](CC(C)C)C(=O)N[C@@H](CC(C)C)C(=O)N[C@@H](C)C(=O)N[C@@H](CCC(N)=O)C(=O)N[C@@H](CCCCN)C(=O)NCC(=O)O)C(C)C` [Compound 41, Me-Y-Aib-E-G-T-F-I-S-D-Y-S-I-A-L-D-R-Aib-A-Q-Aib-Km-F-V-N-W-L-L-A-Q-K-G-OH] (H-[NMeY][Aib]EGTFISDYSIALDR[Aib]AQ[Aib]K([AEEA-AEEA-γGlu-γGlu-C18 diacid])FVNWLLAQKG-OH), the half-life [1, 5] is reported as 115 h, the MRT last [1, 6] is reported as 119 h and the fraction unbound [2, 7] is reported as 0.0007. For the same compound, the “Human PPB (FUplasma)” value ([3]; fraction unbound, human plasma, 1000 nmol/L peptide, ultracentrifugation) was less than 0.002, the “free unbound peptide” value [3, 4] was “optimum free unbound peptide” and the solubility (physchem; pH 7.4) was no less than 15 mg/mL.

Compound `CC[C@H](C)[C@H](NC(=O)[C@H](CO)NC(=O)[C@H](Cc1ccc(O)cc1)NC(=O)[C@H](CC(=O)O)NC(=O)[C@H](CO)NC(=O)[C@@H](NC(=O)[C@H](Cc1ccccc1)NC(=O)[C@@H](NC(=O)CNC(=O)[C@H](CCC(=O)O)NC(=O)C(C)(C)NC(=O)[C@H](Cc1ccc(O)cc1)NC)[C@@H](C)O)[C@@H](C)CC)C(=O)N[C@@H](C)C(=O)N[C@@H](CC(C)C)C(=O)N[C@@H](CC(=O)O)C(=O)N[C@@H](CCCNC(=N)N)C(=O)NC(C)(C)C(=O)N[C@@H](CCCCNC(=O)COCCOCCNC(=O)COCCOCCNC(=O)CC[C@H](NC(=O)CC[C@H](NC(=O)CCCCCCCCCCCCCCCCC(=O)O)C(=O)O)C(=O)O)C(=O)N[C@@H](CCC(N)=O)C(=O)NC(C)(C)C(=O)N[C@@H](CC(N)=O)C(=O)N[C@@H](Cc1ccccc1)C(=O)N[C@H](C(=O)N[C@@H](CC(N)=O)C(=O)N[C@@H](Cc1c[nH]c2ccccc12)C(=O)N[C@@H](CC(C)C)C(=O)N[C@@H](CC(C)C)C(=O)N[C@@H](C)C(=O)N[C@@H](CCC(N)=O)C(=O)N[C@@H](CO)C(=O)N1CCC[C@H]1C(=O)N[C@@H](CO)C(=O)N[C@@H](CO)C(=O)NCC(=O)N[C@@H](C)C(=O)N1CCC[C@H]1C(=O)N1CCC[C@H]1C(=O)N1CCC[C@H]1C(=O)N[C@@H](CO)C(N)=O)C(C)C` [Compound 293, Me-Y-Aib-E-G-T-F-I-S-D-Y-S-I-A-L-D-R-Aib-Km-Q-Aib-N-F-V-N-W-L-L-A-Q-S-P-S-S-G-A-P-P-P-S-NH2] (H-[NMeY][Aib]EGTFISDYSIALDR[Aib]K([AEEA-AEEA-γGlu-γGlu-C18 diacid])Q[Aib]NFVNWLLAQSPSSGAPPPS-NH2) has a half-life ([1]; iv, 3 nmol/kg) of 68 h, an MRT last ([1]; sc, 3 nmol/kg) of 83 h and a fraction unbound at 30 min, 1000 nmol/L ([2]; dog, serum, pH 7.4) of less than 0.002. The fraction unbound at 30 min, 1000 nmol/L ([3]; both sexes, human, plasma, pH 7.4) was less than 0.002, the “free unbound peptide” value ([3]; human, plasma) was “optimum free unbound peptide” and the solubility (physchem; pH 7.4) was no less than 15 mg/mL. The solubility (physchem; pH 7.4, aqueous buffer) was no less than 30 mg/mL.

Work on `CC[C@H](C)[C@H](NC(=O)[C@H](Cc1ccccc1)NC(=O)[C@@H](NC(=O)CNC(=O)[C@H](CCC(=O)O)NC(=O)C(C)(C)NC(=O)[C@H](Cc1ccc(O)cc1)NC)[C@@H](C)O)C(=O)N[C@@H](CO)C(=O)N[C@@H](CC(=O)O)C(=O)N[C@@H](Cc1ccc(O)cc1)C(=O)N[C@@H](CO)C(=O)N[C@H](C(=O)NC(C)(C)C(=O)N[C@@H](CCCCNC(=O)CNC(=O)CNC(=O)CNC(=O)CNC(=O)CNC(=O)CCCCCCCCCCCCCCCCC(=O)O)C(=O)N[C@@H](CC(=O)O)C(=O)N[C@@H](CCCNC(=N)N)C(=O)NC(C)(C)C(=O)N[C@@H](C)C(=O)N[C@@H](CCC(N)=O)C(=O)NC(C)(C)C(=O)N[C@@H](CC(=O)O)C(=O)N[C@@H](Cc1ccccc1)C(=O)N[C@H](C(=O)N[C@@H](CC(N)=O)C(=O)N[C@@H](Cc1c[nH]c2ccccc12)C(=O)N[C@@H](CC(C)C)C(=O)N[C@@H](CC(C)C)C(=O)N[C@@H](C)C(=O)N[C@@H](CCC(N)=O)C(=O)N[C@@H](CCCNC(=N)N)C(=O)NCC(=O)O)C(C)C)[C@@H](C)CC` [Compound 294, Me-Y-Aib-E-G-T-F-I-S-D-Y-S-I-Aib-Km-D-R-Aib-A-Q-Aib-D-F-V-N-W-L-L-A-Q-R-G-OH] yielded a half-life [1, 5] of 59 h, an MRT last [1, 6] of 97 h and an EC50 (human GLP-1R) of 0.0389 µM. The fraction unbound [2, 7] was 0.0111, the fraction unbound ([3]; both sexes, pH 7.4, fraction unbound, human plasma, 1000 nmol/L peptide, ultracentrifugation, read-out: Human PPB (FUplasma)) was less than 0.002 and the “free unbound peptide” value [3, 4] was “optimum free unbound peptide”. It also gave a solubility (physchem; pH 7.4) of no less than 15 mg/mL and a solubility (physchem; pH 7.4, aqueous buffer) of no less than 30 mg/mL.
